Laboratory results published in PubChem BioAssay AID248 (DTP/NCI, 2004).
“And” between values parts separate entries of the source, which are not always exact repeats. Identical values can stand only once. Inconclusive results and toxic doses are left out. Rule as the data show it: active = T/C of 150% or more; inactive = T/C below 125%.

Tested on: L1210 leukemia ip in BDF1 mice, survival T/C
Test: NCI In Vivo Anticancer Drug Screen. Data for tumor model L1210 Leukemia (intraperitoneal) in B6D2F1 (BDF1) mice
Conditions: endpoint: mean survival time, higher = longer survival
How it was run: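 Tumor was transplanted into mice, which were then dosed with test compound or vehicle alone. Survival was recorded for each group, and the treated figure was expressed relative to the control figure.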

[1] = dose: 100.0 mg/kg/injection, schedule: Q01DX001 (ip), vehicle: carboxymethylcellulose (CMC)
[2] = dose: 200.0 mg/kg/injection, schedule: Q01DX001 (ip), vehicle: carboxymethylcellulose (CMC)
[3] = dose: 400.0 mg/kg/injection, schedule: Q01DX001 (ip), vehicle: carboxymethylcellulose (CMC)
[4] = dose: 100.0 mg/kg/injection, schedule: Q01DX009 (ip), vehicle: Klucel (hydroxypropylcellulose) (HPC)
[5] = dose: 200.0 mg/kg/injection, schedule: Q01DX009 (ip), vehicle: Klucel (hydroxypropylcellulose) (HPC)
[6] = dose: 400.0 mg/kg/injection, schedule: Q01DX009 (ip), vehicle: Klucel (hydroxypropylcellulose) (HPC)
[7] = dose: 100.0 mg/kg/injection, schedule: Q01DX009 (ip), vehicle: saline with Tween-80
[8] = dose: 200.0 mg/kg/injection, schedule: Q01DX009 (ip), vehicle: saline with Tween-80
[9] = dose: 100.0 mg/kg/injection, schedule: Q04DX003 (ip), vehicle: Klucel (hydroxypropylcellulose) (HPC)
[10] = dose: 200.0 mg/kg/injection, schedule: Q04DX003 (ip), vehicle: Klucel (hydroxypropylcellulose) (HPC)
[11] = dose: 400.0 mg/kg/injection, schedule: Q04DX003 (ip), vehicle: Klucel (hydroxypropylcellulose) (HPC)
[12] = dose: 100.0 mg/kg/injection, schedule: Q04DX002 (ip), vehicle: saline with Tween-80

Measured: T/C

Oc1ccc2ccccc2c1N=Nc1ccc(F)cc1
inactive: dose: 25.0 mg/kg/injection, schedule: Q01DX015 (ip), vehicle: saline 101 % of control | dose: 50.0 mg/kg/injection, schedule: Q01DX015 (ip), vehicle: saline 96 % of control | dose: 60.0 mg/kg/injection, schedule: Q01DX015 (ip), vehicle: carboxymethylcellulose (CMC) 109 % of control | [1] 92 % of control | dose: 100.0 mg/kg/injection, schedule: Q01DX009 (ip), vehicle: carboxymethylcellulose (CMC) 95 % of control | dose: 100.0 mg/kg/injection, schedule: Q01DX015 (ip), vehicle: saline 96 % of control | dose: 100.0 mg/kg/injection, schedule: Q04DX003 (ip), vehicle: carboxymethylcellulose (CMC) 114 % of control | dose: 120.0 mg/kg/injection, schedule: Q01DX015 (ip), vehicle: carboxymethylcellulose (CMC) 104 % of control | [2] 92 % of control | dose: 200.0 mg/kg/injection, schedule: Q01DX009 (ip), vehicle: carboxymethylcellulose (CMC) 95 % of control | dose: 200.0 mg/kg/injection, schedule: Q01DX015 (ip), vehicle: saline 101 % of control | dose: 200.0 mg/kg/injection, schedule: Q04DX003 (ip), vehicle: carboxymethylcellulose (CMC) 97 % of control | dose: 240.0 mg/kg/injection, schedule: Q01DX015 (ip), vehicle: carboxymethylcellulose (CMC) 95 % of control | [3] 89 % of control | dose: 400.0 mg/kg/injection, schedule: Q01DX015 (ip), vehicle: saline 101 % of control | dose: 400.0 mg/kg/injection, schedule: Q04DX003 (ip), vehicle: carboxymethylcellulose (CMC) 100 % of control | dose: 480.0 mg/kg/injection, schedule: Q01DX015 (ip), vehicle: carboxymethylcellulose (CMC) 96 % of control

O=C1c2ccccc2-c2nc3cc4ccccc4cc3nc21
inactive: dose: 100.0 mg/kg/injection, schedule: Q01DX001 (ip), vehicle: Klucel (hydroxypropylcellulose) (HPC) 98 % of control | [4] 98 % of control | dose: 200.0 mg/kg/injection, schedule: Q01DX001 (ip), vehicle: Klucel (hydroxypropylcellulose) (HPC) 88 % of control | [5] 97 % of control | dose: 400.0 mg/kg/injection, schedule: Q01DX001 (ip), vehicle: Klucel (hydroxypropylcellulose) (HPC) 97 % of control | [6] 102 % of control

CC(C)(C#N)C(C)(C)C#N
inactive: dose: 1.56 mg/kg/injection, schedule: Q04DX003 (ip), vehicle: saline with Tween-80 103 % of control | dose: 3.13 mg/kg/injection, schedule: Q04DX003 (ip), vehicle: saline with Tween-80 92 % of control | dose: 6.25 mg/kg/injection, schedule: Q04DX003 (ip), vehicle: saline with Tween-80 93 % of control and 92 % of control

Cc1ccc(S(=O)(=O)OCCOCCOCCOCCOCCOCCOS(=O)(=O)c2ccc(C)cc2)cc1
inactive: dose: 100.0 mg/kg/injection, schedule: Q01DX001 (ip), vehicle: other 103 % of control | dose: 200.0 mg/kg/injection, schedule: Q01DX001 (ip), vehicle: other 98 % of control | dose: 400.0 mg/kg/injection, schedule: Q01DX001 (ip), vehicle: other 98 % of control

CC(=O)Cc1cc(=O)[nH]c(=O)[nH]1
inactive: [7] 95 % of control | [8] 89 % of control

CC(N)Cc1ccc(O)cc1 (stereo not given)
inactive: dose: 25.0 mg/kg/injection, schedule: Q01DX009 (ip), vehicle: saline 108 % of control | dose: 25.0 mg/kg/injection, schedule: Q04DX003 (ip), vehicle: saline 100 % of control | dose: 50.0 mg/kg/injection, schedule: Q01DX009 (ip), vehicle: saline 103 % of control | dose: 50.0 mg/kg/injection, schedule: Q04DX003 (ip), vehicle: saline 94 % of control | dose: 100.0 mg/kg/injection, schedule: Q01DX009 (ip), vehicle: saline 101 % of control | dose: 100.0 mg/kg/injection, schedule: Q04DX003 (ip), vehicle: saline 96 % of control | dose: 200.0 mg/kg/injection, schedule: Q01DX009 (ip), vehicle: saline 93 % of control | dose: 200.0 mg/kg/injection, schedule: Q04DX003 (ip), vehicle: saline 100 % of control | dose: 400.0 mg/kg/injection, schedule: Q04DX003 (ip), vehicle: saline 94 % of control

CCCCCCCCCCCCCCCCSCCOC(=O)C1C2CCC(O2)C1C(=O)O (stereo not given)
inactive: dose: 12.5 mg/kg/injection, schedule: Q01DX001 (ip), vehicle: Klucel (hydroxypropylcellulose) (HPC) 107 % of control | dose: 25.0 mg/kg/injection, schedule: Q01DX001 (ip), vehicle: Klucel (hydroxypropylcellulose) (HPC) 101 % of control | dose: 50.0 mg/kg/injection, schedule: Q01DX001 (ip), vehicle: Klucel (hydroxypropylcellulose) (HPC) 98 % of control

CN1CCCC1c1cccc([N+](=O)[O-])c1 (stereo not given)
inactive: dose: 100.0 mg/kg/injection, schedule: Q01DX001 (ip), vehicle: acetone 93 % of control

CN(C)c1ccc(N=C2C(c3ccccc3)=CC(c3ccccc3)=C2c2ccccc2)cc1
inactive: dose: 50.0 mg/kg/injection, schedule: Q01DX001 (ip), vehicle: carboxymethylcellulose (CMC) 89 % of control | [1] 91 % of control | [2] 94 % of control | [3] 97 % of control

O=C(CCCC(=O)NNC(=O)Nc1ccc(N=Nc2ccccc2)cc1)NNC(=O)Nc1ccc(N=Nc2ccccc2)cc1
inactive: dose: 50.0 mg/kg/injection, schedule: Q01DX001 (ip), vehicle: saline 93 % of control | dose: 100.0 mg/kg/injection, schedule: Q01DX001 (ip), vehicle: saline 102 % of control | dose: 200.0 mg/kg/injection, schedule: Q01DX001 (ip), vehicle: saline 96 % of control | dose: 400.0 mg/kg/injection, schedule: Q01DX001 (ip), vehicle: saline 100 % of control

O=C(Oc1cccc(OC(=O)c2ccccc2)c1)c1ccccc1
inactive: dose: 100.0 mg/kg/injection, schedule: Q04DX003 (ip), vehicle: saline with Tween-80 100 % of control | dose: 200.0 mg/kg/injection, schedule: Q04DX003 (ip), vehicle: saline with Tween-80 91 % of control | dose: 400.0 mg/kg/injection, schedule: Q04DX003 (ip), vehicle: saline with Tween-80 88 % of control

CC[C@@]1(O)C[C@H](OC2CC(N(C)C)C(O)C(C)O2)c2c(O)c3c(c(O)c2[C@H]1OC1CC(N(C)C)C(O)C(C)O1)C(=O)c1cccc(O)c1C3=O (stereo not given in full)
inactive: dose: 0.5 mg/kg/injection, schedule: Q01DX009 (ip), vehicle: saline 110 % of control

Clc1ccc(C(c2ccc(Cl)cc2)C(Cl)Cl)cc1
inactive: [9] 98 % of control | [10] 98 % of control | [11] 98 % of control

COC1CCC(/C=C(\C#N)C2CCC(C)CC2)CC1 (stereo not given)
inactive: [12] 94 % of control | dose: 200.0 mg/kg/injection, schedule: Q04DX002 (ip), vehicle: saline with Tween-80 97 % of control | dose: 400.0 mg/kg/injection, schedule: Q04DX002 (ip), vehicle: saline with Tween-80 94 % of control

O=C(O)/C=C/c1cc2c(cc1[N+](=O)[O-])OCO2
inactive: [4] 98 % of control | [9] 86 % of control | [5] 93 % of control | [10] 95 % of control | [6] 88 % of control | [11] 100 % of control

CN(C)C(=S)Oc1ccc(S(=O)(=O)F)c(Cl)c1Cl
inactive: dose: 25.0 mg/kg/injection, schedule: Q04DX002 (ip), vehicle: saline with Tween-80 92 % of control | dose: 50.0 mg/kg/injection, schedule: Q04DX002 (ip), vehicle: saline with Tween-80 92 % of control | [12] 86 % of control

COc1ccc(OC)c2c1CCCC2
inactive: [4] 106 % of control | [5] 117 % of control

NC(=O)NC(C(=O)O)(c1ccccc1)C1CCC1 (stereo not given)
inactive: dose: 50.0 mg/kg/injection, schedule: Q01DX009 (ip), vehicle: saline with Tween-80 103 % of control | [7] 94 % of control | [8] 102 % of control | dose: 400.0 mg/kg/injection, schedule: Q01DX009 (ip), vehicle: saline with Tween-80 107 % of control

O=C1c2cscc2Cc2sccc21
inactive: dose: 100.0 mg/kg/injection, schedule: Q01DX001 (ip), vehicle: saline with Tween-80 95 % of control | dose: 200.0 mg/kg/injection, schedule: Q01DX001 (ip), vehicle: saline with Tween-80 92 % of control | dose: 400.0 mg/kg/injection, schedule: Q01DX001 (ip), vehicle: saline with Tween-80 88 % of control

COC(=O)c1cc(=O)[nH]c2c1c(=O)n(C)c(=O)n2C
inactive: [9] 95 % of control | [5] 97 % of control | [10] 90 % of control | [6] 97 % of control | [11] 94 % of control
